The source of these data is patent publication US12545681B2, “Compound used as RET kinase inhibitor and application thereof” (TYK Medicines, Inc., priority 2020, dated 2026).

Residue numbers refer to the chain shown, from its start.

What all share (type): cell-based
One experiment concerns the target T1, Ba/F3-KIF5B-RET-V804M (Homo sapiens, UniProt P07949, V804M).
T1 construct: KIF5B (fusion partner, N-terminal part of kinesin-1 heavy chain, P33176); host or cells: Ba/F3 (murine pro-B cells); the other entry of the earlier key: KIF5B (P33176, Kinesin-1 heavy chain)
T1 sequence (P07949 713-1063 V804M limits assumed): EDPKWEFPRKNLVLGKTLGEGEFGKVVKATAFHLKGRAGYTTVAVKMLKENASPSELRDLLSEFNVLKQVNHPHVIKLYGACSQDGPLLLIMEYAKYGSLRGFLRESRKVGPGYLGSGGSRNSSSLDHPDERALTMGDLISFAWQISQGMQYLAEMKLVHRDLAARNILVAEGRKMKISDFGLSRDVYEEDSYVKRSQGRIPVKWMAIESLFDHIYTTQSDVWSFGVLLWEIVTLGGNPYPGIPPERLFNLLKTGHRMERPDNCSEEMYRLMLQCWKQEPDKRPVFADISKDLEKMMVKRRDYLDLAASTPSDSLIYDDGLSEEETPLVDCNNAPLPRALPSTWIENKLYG
The experiment is described as follows: Cell anti-proliferation (CellTiter-Glo), Ba/F3-KIF5B-RET-V804M cells. As to conditions: cell viability, 72 h incubation. The method, then:
(§1) Ba/F3-KIF5B-RET, Ba/F3-KIF5B-RET-V804L and Ba/F3-KIF5B-RET-V804M cells were constructed by PreceDo Pharmaceuticals Co., Ltd.
(§2) Ba/F3-KIF5B-RET, Ba/F3-KIF5B-RET-V804L and Ba/F3-KIF5B-RET-V804M medium: RPMI-1640+10% FBS+1% P/S.
(§3) A 1000×solution of the compound was prepared with DMSO, the compound was diluted to 20 times to obtain the final concentration with a growth medium, and 2 μl 1000×cpd was added to 98 μl growth medium.
(§4) Cells were centrifuged and resuspended with growth medium and cell counting was performed using a cell counter. The cell suspension was diluted with growth medium to the desired concentration. 95 uL of the diluted cell suspension was taken out to a 96-well plate. 5 μL of 20×compound solution was added to the 96-well plate to a final DMSO concentration of 0.1% per well. The 96-well plate was incubated for 72 h at 37° C. with 5% CO2.
(§5) The 96-well plate was equilibrated to room temperature before the assay, 50 μl of CellTiter-Glo® Reagent was added to each well, the cells were fully lysed by shaking for 2 minutes on a shaker, incubated for 10 minutes at room temperature, and Paradigm was used to detect and record the […] readings.
(§6) Cell viability was analyzed using Graphpad 7.0 software according to the formula Cell viability (CV %)=(RLU compound−RLU blank)/(RLU control−RLU blank)*100%, and the corresponding IC50 data were calculated, in Table 1, the following names are used: <10.00 nM=A; 10.01-50.0 nM=B; >50 nM=C.

A further experiment has as its target T2, Ba/F3-KIF5B-RET (Homo sapiens, UniProt P07949).
T2 construct: KIF5B (fusion partner, N-terminal part of kinesin-1 heavy chain, P33176); host or cells: Ba/F3 (murine pro-B cells); the other entry of the earlier key: KIF5B (P33176, Kinesin-1 heavy chain)
T2 sequence (P07949 713-1063 limits assumed): T1 sequence (P07949 713-1063 V804M limits assumed) with M92V
The experiment is described as follows: Cell anti-proliferation (CellTiter-Glo), Ba/F3-KIF5B-RET cells. The following applies: for IC50: cell viability, 72 h incubation, CellTiter-Glo. Here is the method: as §1, §2, §3, §4, §5, §6
A general note: ATP-based viability assays read luminescence as a measure of living cells.

The next experiment concerns the target T3, Ba/F3-KIF5B-RET-V804L (Homo sapiens, UniProt P07949, V804L).
T3 construct: KIF5B (fusion partner, N-terminal part of kinesin-1 heavy chain, P33176); host or cells: Ba/F3 (murine pro-B cells); the other entry of the earlier key: KIF5B (P33176, Kinesin-1 heavy chain)
T3 sequence (P07949 713-1063 V804L limits assumed): T1 sequence (P07949 713-1063 V804M limits assumed) with M92L
Nature of the experiment: Cell anti-proliferation (CellTiter-Glo), Ba/F3-KIF5B-RET-V804L cells. As to conditions: cell viability, 72 h incubation. Here is the method:
as §1, §2, §3, §4, §5, §6

Turning to `[2H]C([2H])([2H])n1ncc2c(Nc3cc(C)[nH]n3)nc([C@H]3CC[C@](OC)(C(=O)N[C@@H](C)c4ccc(-n5cc(F)cn5)nc4)CC3)nc21` [Compound C3], the IC50 at Ba/F3-KIF5B-RET-V804M, on Ba/F3-KIF5B-RET and at Ba/F3-KIF5B-RET-V804L was less than 10 nM in each case.

For `CO[C@]1(C(=O)N[C@@H](C)c2cnc(-n3cc(F)cn3)cn2)CC[C@H](c2nc(Nc3cc(C)[nH]n3)c3cnn(C4CC4)c3n2)CC1` [Compound C20], the IC50 against Ba/F3-KIF5B-RET-V804M, against Ba/F3-KIF5B-RET and against Ba/F3-KIF5B-RET-V804L was less than 10 nM throughout.

Turning to `CO[C@]1(C(=O)N[C@@H](C)c2ccc(-n3cc(F)cn3)nc2)CC[C@H](c2nc(Nc3cc(C)[nH]n3)c3cnn(COCC[Si](C)(C)C)c3n2)CC1` [Compound C2], the IC50 (usually the concentration at which inhibition is half-maximal) against Ba/F3-KIF5B-RET-V804M is more than 50 nM; against Ba/F3-KIF5B-RET, more than 50 nM; at Ba/F3-KIF5B-RET-V804L, 10 to 50 nM.

In the case of `CCn1ncc2c(Nc3cc(C)[nH]n3)nc([C@H]3CC[C@](OC)(C(=O)N[C@@H](C)c4cnc(-n5cc(F)cn5)cn4)CC3)nc21` [Compound C5], the half-inhibitory concentration (IC50) on Ba/F3-KIF5B-RET-V804M, against Ba/F3-KIF5B-RET and against Ba/F3-KIF5B-RET-V804L was less than 10 nM throughout.

Turning to `CO[C@]1(C(=O)N[C@@H](C)c2cnc(-n3cc(F)cn3)cn2)CC[C@H](c2nc(Nc3cc(C)[nH]n3)c3cnn(C4CC(F)(F)C4)c3n2)CC1` [Compound C11], the IC50 on Ba/F3-KIF5B-RET-V804M, against Ba/F3-KIF5B-RET and at Ba/F3-KIF5B-RET-V804L was 10 to 50 nM each time.

On to `CO[C@]1(C(=O)N[C@@H](C)c2ccc(-n3cc(F)cn3)nc2)CC[C@H](c2nc(Nc3cc(C)[nH]n3)c3cnn(CCF)c3n2)CC1` [Compound C18], for which the IC50 against Ba/F3-KIF5B-RET-V804M, against Ba/F3-KIF5B-RET and at Ba/F3-KIF5B-RET-V804L was less than 10 nM each time.

On to `COCCn1ncc2c(Nc3cc(C)[nH]n3)nc([C@H]3CC[C@](OC)(C(=O)N[C@@H](C)c4cnc(-n5cc(F)cn5)cn4)CC3)nc21` [Compound C10], for which the IC50 is 10 to 50 nM against Ba/F3-KIF5B-RET-V804M, less than 10 nM on Ba/F3-KIF5B-RET and less than 10 nM at Ba/F3-KIF5B-RET-V804L.

On to `CCCn1ncc2c(Nc3cc(C)[nH]n3)nc([C@H]3CC[C@](OC)(C(=O)N[C@@H](C)c4cnc(-n5cc(F)cn5)cn4)CC3)nc21` [Compound C22], for which the IC50 against Ba/F3-KIF5B-RET-V804M, at Ba/F3-KIF5B-RET and at Ba/F3-KIF5B-RET-V804L was 10 to 50 nM throughout.

In the case of `CO[C@]1(C(=O)N[C@@H](C)c2cnc(-n3cc(F)cn3)cn2)CC[C@H](c2nc(Nc3cc(C)[nH]n3)c3cnn(C)c3n2)CC1` [Compound C8], the IC50 at Ba/F3-KIF5B-RET-V804M, on Ba/F3-KIF5B-RET and against Ba/F3-KIF5B-RET-V804L was less than 10 nM in each case.

With `CO[C@]1(C(=O)N[C@@H](C)c2cnc(-n3cc(F)cn3)cn2)CC[C@H](c2nc(Nc3cc(C)[nH]n3)c3cnn(CC(F)(F)F)c3n2)CC1` [Compound C23], the IC50 is 10 to 50 nM on Ba/F3-KIF5B-RET-V804M, less than 10 nM on Ba/F3-KIF5B-RET and less than 10 nM against Ba/F3-KIF5B-RET-V804L. Moreover, the “RET inhibitory activity / inhibition effect (in words)” value on Ba/F3-KIF5B-RET (summary of Table 1, especially Ba/F3-KIF5B-RET-V804M and Ba/F3-KIF5B-RET-V804L) is “superior to that of Control Example 3”.

`[2H]C([2H])([2H])n1ncc2c(Nc3cc(C)[nH]n3)nc([C@H]3CC[C@](OC)(C(=O)N[C@@H](C)c4cnc(-n5cc(F)cn5)cn4)CC3)nc21` [Compound C9]: the IC50 against Ba/F3-KIF5B-RET-V804M, against Ba/F3-KIF5B-RET and against Ba/F3-KIF5B-RET-V804L was less than 10 nM throughout.

On to `CO[C@]1(C(=O)N[C@@H](C)c2cnc(-n3cc(F)cn3)s2)CC[C@H](c2nc(Nc3cc(C)[nH]n3)c3cnn(C4CC4)c3n2)CC1` [Compound C14], for which the IC50 at Ba/F3-KIF5B-RET-V804M is 10 to 50 nM; at Ba/F3-KIF5B-RET it was less than 10 nM; on Ba/F3-KIF5B-RET-V804L, less than 10 nM.

As for `CCn1ncc2c(Nc3cc(C)[nH]n3)nc([C@H]3CC[C@](OC)(C(=O)N[C@@H](C)c4cnc(-n5cc(F)cn5)s4)CC3)nc21` [Compound C13], the IC50 against Ba/F3-KIF5B-RET-V804M is 10 to 50 nM; on Ba/F3-KIF5B-RET, less than 10 nM; on Ba/F3-KIF5B-RET-V804L it was less than 10 nM.

On to `CO[C@]1(C(=O)N[C@@H](C)c2cnc(-n3cc(F)cn3)cn2)CC[C@H](c2nc(Nc3cc(C)[nH]n3)c3cnn(CC4CC4)c3n2)CC1` [Compound C12], for which the results for the IC50 against Ba/F3-KIF5B-RET-V804M, at Ba/F3-KIF5B-RET and against Ba/F3-KIF5B-RET-V804L were 10 to 50 nM, less than 10 nM and less than 10 nM, respectively.

Regarding `CCn1ncc2c(Nc3cc(C)[nH]n3)nc([C@H]3CC[C@](OC)(C(=O)N[C@@H](C)c4csc(-n5cc(F)cn5)n4)CC3)nc21` [Compound C15], the IC50 was 10 to 50 nM against Ba/F3-KIF5B-RET-V804M, less than 10 nM against Ba/F3-KIF5B-RET and less than 10 nM on Ba/F3-KIF5B-RET-V804L.

As for `CCn1ncc2c(Nc3cc(C)[nH]n3)nc([C@H]3CC[C@](OC)(C(=O)N[C@@H](C)c4ccc(-n5cc(F)cn5)nc4)CC3)nc21` [Compound C4], the IC50 against Ba/F3-KIF5B-RET-V804M, against Ba/F3-KIF5B-RET and at Ba/F3-KIF5B-RET-V804L was less than 10 nM in each case.

For `CO[C@]1(C(=O)N[C@@H](C)c2csc(-n3cc(F)cn3)n2)CC[C@H](c2nc(Nc3cc(C)[nH]n3)c3cnn(C4CC4)c3n2)CC1` [Compound C16], the IC50 was 10 to 50 nM against Ba/F3-KIF5B-RET-V804M, less than 10 nM at Ba/F3-KIF5B-RET and less than 10 nM on Ba/F3-KIF5B-RET-V804L.

Turning to `CO[C@]1(C(=O)N[C@@H](C)c2ccc(-n3cc(F)cn3)nc2)CC[C@H](c2nc(Nc3cc(C)[nH]n3)c3cnn(CC(F)F)c3n2)CC1` [Compound C6], the IC50 against Ba/F3-KIF5B-RET-V804M, against Ba/F3-KIF5B-RET and at Ba/F3-KIF5B-RET-V804L was less than 10 nM in each case.

Regarding `CO[C@]1(C(=O)N[C@@H](C)c2cnc(-n3cc(F)cn3)cn2)CC[C@H](c2nc(Nc3cc(C)[nH]n3)c3cn(CC(F)(F)F)nc3n2)CC1` [Control Example 3, reference compound], the results for the IC50 on Ba/F3-KIF5B-RET-V804M, on Ba/F3-KIF5B-RET and against Ba/F3-KIF5B-RET-V804L were more than 50 nM, 10 to 50 nM and 10 to 50 nM, respectively.

Regarding `CO[C@]1(C(=O)N[C@@H](C)c2cnc(-n3cc(F)cn3)cn2)CC[C@H](c2nc(Nc3cc(C)[nH]n3)c3cnn(C4COC4)c3n2)CC1` [Compound C21], the IC50 on Ba/F3-KIF5B-RET-V804M, against Ba/F3-KIF5B-RET and on Ba/F3-KIF5B-RET-V804L was 10 to 50 nM throughout.

Consider `CO[C@]1(C(=O)N[C@@H](C)c2cnc(-n3cc(F)cn3)cn2)CC[C@H](c2nc(Nc3cc(C)[nH]n3)c3cnn(CC(F)F)c3n2)CC1` [Compound C7], for which the IC50 against Ba/F3-KIF5B-RET-V804M, against Ba/F3-KIF5B-RET and on Ba/F3-KIF5B-RET-V804L was less than 10 nM each time.
